Assay results: PMC3433414, “Oral Administration of the Pimelic Diphenylamide HDAC Inhibitor HDACi 4b Is Unsuitable for Chronic Inhibition of HDAC Activity in the CNS In Vivo” (PLoS ONE, 2012)

Assays:
catalytic domain HDAC4 = target: T1, catalytic domain HDAC4 (Homo sapiens, UniProt P56524); test: Two-step fluorogenic deacetylase assay, recombinant HDAC4; type: biochemical; details: up to 50 µM
T1 construct: catalytic domain HDAC4(αα 648–1057); purchased Emerald Biosciences (Seattle, WA)
From the text: To assess the biochemical and cellular potency of 4b and its conversion products/metabolites, we utilized the two-step fluorogenic assay which measures the HDAC-mediated catalytic conversion of synthetic acetylated lysine substrates. In brief, on deacetylation of the substrates by HDAC activity, a protease site is unmasked which allows subsequent trypsin-mediated cleavage and release of the highly flourescent AMC molecules in a subsequent step of the assay. The substrates used were Lys_Ac_AMC (Bachem I-1875) for HDAC3 and (Ac)Arg-Gly-Lys(Ac) (Bachem I-1925) for HDAC1 and HDAC2. […] However, the relatively labile and sterically more demanding trifluoracetyl group is readily hydrolyzed by the catalytically less avid Class IIa enzymes, allowing measurement of Class IIa activity using the 2-step fluorogenic assay. […]
For evaluation of the class selectivity of the compounds, we assessed inhibition against purified recombinant human full length HDAC1 (cat# 50051), HDAC2 (cat# 50052), HDAC3-NcoR2 (cat# 50003) and HDAC8 (cat# 50008): as representative of Class I activity; catalytic domain HDAC4(αα 648–1057), HDAC5 (αα 657–1123; cat # 50005), HDAC7 (αα 518-end; cat # 50007) and HDAC9 (αα 604–1066; cat # 50009) activity: representing all Class IIa activity; and full length HDAC6 (cat#50006): representing Class IIb activity. […]

[1] = Permeability and efflux in Caco2 monolayers; type: in vitro ADME; details: human
Method: Caco-2 cells (obtained from ECACC) were used after a 21-day cell culture period in 24-well Transwell plates (seeding density of 2×10^5 cells/well). Test compounds (10 µM) were dissolved in Hanks’ Balanced Salt Solution (HBSS) containing 25 mM HEPES (pH 7.4) and added to either the apical or basolateral chambers of a Transwell plate assembly. Duplicate wells were prepared per assay condition. Lucifer Yellow was added to the apical buffer in all wells to assess integrity of the cell layers by monitoring Lucifer Yellow permeation. As Lucifer Yellow (LY) cannot freely permeate lipophilic barriers, a high degree of LY transport indicates poor integrity of the cell layer.
After 1 hr incubation at 37°C, aliquots were taken from the acceptor chamber of each Transwell and added to acetonitrile containing analytical internal standard (carbamazepine) in a 96 well plate. Concentrations of test compound in the samples were measured by high performance liquid-chromatography/mass spectroscopy (LC-MS/MS).
Apparent permeability (Papp) values were calculated from the relationship: [drawing 4] […]
Acceptor = Chamber of Transwell in to which permeation of compound is measured: basal for A>B experiments and apical for B>A experiments.
The Efflux ratios, as an indication of active efflux from the apical cell surface, were calculated using the ratio of Papp B>A/Papp A>B.

CRF1 (h) = target: T2, CRF1 (h) (Homo sapiens, UniProt P34998); test: Cerep binding, agonist radioligand; details: read-out: % inhibition of control specific binding
T2 construct: purchased Cerep (Diversity Profile)
T2 sequence (P34998 24-415): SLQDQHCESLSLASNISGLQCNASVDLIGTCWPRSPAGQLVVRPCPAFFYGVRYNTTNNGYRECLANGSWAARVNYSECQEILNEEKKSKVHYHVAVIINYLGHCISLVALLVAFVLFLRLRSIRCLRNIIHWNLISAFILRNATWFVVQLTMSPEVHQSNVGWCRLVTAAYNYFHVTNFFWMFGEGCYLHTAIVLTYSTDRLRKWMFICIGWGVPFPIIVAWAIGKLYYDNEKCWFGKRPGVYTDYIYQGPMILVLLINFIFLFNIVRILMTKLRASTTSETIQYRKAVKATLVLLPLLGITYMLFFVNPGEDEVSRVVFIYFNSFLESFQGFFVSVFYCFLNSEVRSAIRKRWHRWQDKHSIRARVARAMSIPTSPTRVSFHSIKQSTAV
From the text: (§1) In addition to the HDAC profiling performed, we also queried 4b for any apparent potential off-target effects, which could complicate any finding of efficacy or adverse events in vivo due to ‘polypharmacy’. This was accomplished by screening against a ‘diversity panel’ of 72 binding and 29 enzyme assays, comprised of roughly equal numbers of selective central and peripheral therapeutically relevant targets (Cerep Diversity Profile). This panel included representative targets from diverse enzyme families, G protein coupled receptors, steroid nuclear receptors, voltage- and ligand-gated ion channels. While not totally inclusive, it is a useful tool for discovery compounds to assess their viability as proof of concept molecules to specifically query a particular target. 4b was initially screened at 10 µM in duplicate. The full set of results is provided as Table S1. […] This clean in vitro profile was considered acceptable to proceed to ADME and pharmacokinetic studies.

B1 (h) = target: T3, B1 (h) (Homo sapiens, UniProt P46663); test: Cerep binding, agonist radioligand; details: read-out: % inhibition of control specific binding
T3 construct: purchased Cerep (Diversity Profile)
T3 sequence (P46663 whole entry): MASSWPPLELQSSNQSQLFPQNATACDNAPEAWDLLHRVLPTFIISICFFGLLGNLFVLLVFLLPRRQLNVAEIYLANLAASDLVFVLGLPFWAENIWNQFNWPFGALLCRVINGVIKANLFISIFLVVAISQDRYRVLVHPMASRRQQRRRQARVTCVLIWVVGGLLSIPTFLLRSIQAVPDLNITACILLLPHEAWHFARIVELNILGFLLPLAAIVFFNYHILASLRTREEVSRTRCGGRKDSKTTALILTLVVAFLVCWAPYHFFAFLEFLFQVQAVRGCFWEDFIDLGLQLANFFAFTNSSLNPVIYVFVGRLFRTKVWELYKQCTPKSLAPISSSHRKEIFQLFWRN
From the text: as §1

BZD (central) = test: Cerep binding, agonist radioligand; details: 10 μM
From the text: as §1

AR (h) = test: Cerep binding, agonist radioligand; set-up: species or system human; details: 10 μM
From the text: as §1

T1 sequence (P56524 648-1057): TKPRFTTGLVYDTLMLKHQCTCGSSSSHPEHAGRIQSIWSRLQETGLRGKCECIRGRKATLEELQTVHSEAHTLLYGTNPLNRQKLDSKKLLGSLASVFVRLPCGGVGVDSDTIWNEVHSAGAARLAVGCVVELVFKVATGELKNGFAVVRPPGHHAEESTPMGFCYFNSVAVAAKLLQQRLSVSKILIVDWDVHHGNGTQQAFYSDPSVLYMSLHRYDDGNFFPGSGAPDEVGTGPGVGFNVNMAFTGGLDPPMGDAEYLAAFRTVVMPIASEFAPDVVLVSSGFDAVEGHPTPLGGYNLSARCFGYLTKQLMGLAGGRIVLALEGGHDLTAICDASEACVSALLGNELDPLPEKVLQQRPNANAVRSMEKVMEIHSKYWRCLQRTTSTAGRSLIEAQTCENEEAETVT

Row | % inhibition of control specific binding (AR (h)) [%] | Structure (SMILES) | activity against HDAC4 (catalytic domain HDAC4) | Papp A→B at 1 h, 10 µM ([1]; Caco-2, pH 7.4) [×10⁻⁶ cm/s] | efflux ratio at 1 h, 10 µM ([1]; Caco-2, pH 7.4, read-out: effective efflux ratio) | inhibition at 10 µM (CRF1 (h)) [%] | inhibition at 10 µM (B1 (h)) [%] | % inhibition of control specific binding (BZD (central)) [%]
1 | – | Nc1ccccc1NC(=O)CCCCCC(=O)Nc1ccccc1 [Compound 4b] | No activity | 15.6 | 3.5 | 0 | 5 | 4
2 | 3 | O=C(CCCCCc1nc2ccccc2[nH]1)Nc1ccccc1 [Compound C1, 6-(1-H-benzo[d]imidazol-2-yl)-N-phenylhexanamide] | – | – | – | – | – | –
